Patent US4015974A, “Amido phosphorothiolates” (priority 1972, dated 1977)

Assays:
Assay type in all cases: in vivo
[1] = tested on: barnyard grass (Echinochloa crus-galli); assay: Pre-emergence application, herbicidal effect on barnyard grass (Table 1); design: key: 0: not damaged; 5: completely killed; conditions: 20 days after application, score 0-5
Text: (§1) Seeds of barnyard grass (Echinochloa crus-galli) and large crabgrass (Digitaria sanguinalis) as representatives of grassy weeds and those of radish, redroot pigweed (Amaranthus retroflexus), common purslane (Portulaca oleracea) and common lambsquarter (Chenopodium album) as representatives of broad-leaved weeds were individually sowed in flower pots of about 10 cm. in diameter. After covering the seeds with soil, test compounds as shown in Table 1 were individually applied to the soil treatment. Thereafter the plants were grown in a green house and 20 days after application the herbicidal effects of the compounds were observed, the results of which are as shown in Table 1.
(§2) Herbicidal effects were evaluated by the numerals ranging from 0 (not damaged) to 5 (completely killed). All the test compounds were used in the form of wettable powder and diluted with water before application.

rice = assay: Water application, phytotoxicity on rice (Table 2); design: key: 0: no effect; 1: very slightly affected; 2: slightly affected; 3: moderately affected; 4: considerably affected; 5: completely killed; conditions: 25 days, score 0-5
Text: (§3) Wagner pots of 14 cm. in diameter, which had been packed with 1.5 kg. of paddy field soil, were brought into the state of paddy fields. To the pots were transplanted rice seedlings at the 3-leave stage. Further, seeds of barnyard grass (Echinochloa crus-galli) were sowed in the pots and required amounts of test compounds were applied to the soil under water lodged condition. 25 days after application, the degrees of herbicidal activity and phytotoxity were investigated on above-mentioned plants which had been transplanted and sowed, and on broad-leaved weeds, e.g., monochoria (Monochoria viaginalis Presl.), false pimpernel (Linderna pyxidaria) and toothcup (Rotala indica Koehue), which had been spontaneously germinated. The test compounds were used in the form of wettable powder. The herbicidal effects and the phytotoxity were evaluated as follows by the numerals ranging from 0 to 5.

[2] = tested on: large crabgrass (Digitaria sanguinalis); assay: Pre-emergence application, herbicidal effect on large crabgrass (Table 1); design: key: 0: not damaged; 5: completely killed; conditions: 20 days after application, score 0-5
Text: as §1, §2

[3] = tested on: barnyard grass (Echinochloa crus-galli); assay: Water application, herbicidal effect on barnyard grass (Table 2); design: key: 0: not damaged; 5: completely killed; conditions: 25 days, score 0-5
Text: as §3

[4] = tested on: common purslane (Portulaca oleracea); assay: Pre-emergence application, herbicidal effect on common purslane (Table 1); design: key: 0: not damaged; 5: completely killed; conditions: 20 days after application, score 0-5
Text: as §1, §2

[5] = tested on: broad-leaved weeds, e.g., monochoria, false pimpernel and toothcup; assay: Water application, herbicidal effect on broad-leaved weeds (Table 2); design: key: 0: not damaged; 5: completely killed; conditions: 25 days, score 0-5
Text: as §3

[6] = tested on: redroot pigweed (Amaranthus retroflexus); assay: Pre-emergence application, herbicidal effect on redroot pigweed (Table 1); design: key: 0: not damaged; 5: completely killed; conditions: 20 days after application, score 0-5
Text: as §1, §2

[7] = tested on: common lambsquarter (Chenopodium album); assay: Pre-emergence application, herbicidal effect on common lambsquarter (Table 1); design: key: 0: not damaged; 5: completely killed; conditions: 20 days after application, score 0-5
Text: as §1, §2

radish = assay: Pre-emergence application, herbicidal effect on radish (Table 1); design: key: 0: not damaged; 5: completely killed; conditions: 20 days after application, score 0-5
Text: as §1, §2

CCOP(=O)(SCC)SCC(=O)N1CCCC(C)C1 (stereo not drawn) [Compound 71]
0: Phytotoxicity on rice (rice; 10 g/a) | Phytotoxicity on rice (rice; 20 g/a) | Phytotoxicity on rice (rice; 40 g/a) | Herbicidal effect, radish (radish; 10 g./a.)
4: Herbicidal effect, common purslane ([4]; 10 g./a.) | Herbicidal effect, redroot pigweed ([6]; 10 g./a.) | Herbicidal effect, common lambsquarter ([7]; 10 g./a.) | Herbicidal effect, common lambsquarter ([7]; 20 g./a.)
5: Herbicidal effect, barnyard grass ([1]; 10 g./a.) | Herbicidal effect, barnyard grass ([1]; 20 g./a.) | Herbicidal effect, barnyard grass ([1]; 40 g./a.) | Herbicidal effect, large crabgrass ([2]; 10 g./a.) | Herbicidal effect, large crabgrass ([2]; 20 g./a.) | Herbicidal effect, large crabgrass ([2]; 40 g./a.) | Herbicidal effects, barnyard grass ([3]; 10 g/a) | Herbicidal effects, barnyard grass ([3]; 20 g/a) | Herbicidal effects, barnyard grass ([3]; 40 g/a) | Herbicidal effect, common purslane ([4]; 20 g./a.) | Herbicidal effect, common purslane ([4]; 40 g./a.) | Herbicidal effects, broad-leaved weeds ([5]; 10 g/a) | Herbicidal effects, broad-leaved weeds ([5]; 20 g/a) | Herbicidal effects, broad-leaved weeds ([5]; 40 g/a) | Herbicidal effect, redroot pigweed ([6]; 20 g./a.) | Herbicidal effect, redroot pigweed ([6]; 40 g./a.) | Herbicidal effect, common lambsquarter ([7]; 40 g./a.)
1: Herbicidal effect, radish (radish; 20 g./a.)
2: Herbicidal effect, radish (radish; 40 g./a.)

CCCCCSP(=O)(OCC)SCC(=O)N1CCCC(C)C1 (stereo not drawn) [Compound 72]
3: Herbicidal effect, common purslane ([4]; 10 g./a.) | Herbicidal effect, redroot pigweed ([6]; 10 g./a.)
4: Herbicidal effect, barnyard grass ([1]; 10 g./a.) | Herbicidal effect, common purslane ([4]; 20 g./a.) | Herbicidal effect, redroot pigweed ([6]; 20 g./a.) | Herbicidal effect, common lambsquarter ([7]; 10 g./a.) | Herbicidal effect, common lambsquarter ([7]; 20 g./a.)
5: Herbicidal effect, barnyard grass ([1]; 20 g./a.) | Herbicidal effect, barnyard grass ([1]; 40 g./a.) | Herbicidal effect, large crabgrass ([2]; 10 g./a.) | Herbicidal effect, large crabgrass ([2]; 20 g./a.) | Herbicidal effect, large crabgrass ([2]; 40 g./a.) | Herbicidal effects, barnyard grass ([3]; 10 g/a) | Herbicidal effects, barnyard grass ([3]; 20 g/a) | Herbicidal effects, barnyard grass ([3]; 40 g/a) | Herbicidal effect, common purslane ([4]; 40 g./a.) | Herbicidal effects, broad-leaved weeds ([5]; 10 g/a) | Herbicidal effects, broad-leaved weeds ([5]; 20 g/a) | Herbicidal effects, broad-leaved weeds ([5]; 40 g/a) | Herbicidal effect, redroot pigweed ([6]; 40 g./a.) | Herbicidal effect, common lambsquarter ([7]; 40 g./a.)
0: Phytotoxicity on rice (rice; 10 g/a) | Phytotoxicity on rice (rice; 20 g/a) | Phytotoxicity on rice (rice; 40 g/a) | Herbicidal effect, radish (radish; 10 g./a.) | Herbicidal effect, radish (radish; 20 g./a.) | Herbicidal effect, radish (radish; 40 g./a.)

CCOP(=O)(SCCC(C)C)SCC(=O)N1CCCC(C)C1 (stereo not drawn) [Compound 73]
0: Phytotoxicity on rice (rice; 10 g/a) | Phytotoxicity on rice (rice; 20 g/a) | Phytotoxicity on rice (rice; 40 g/a) | Herbicidal effect, radish (radish; 10 g./a.) | Herbicidal effect, radish (radish; 20 g./a.) | Herbicidal effect, radish (radish; 40 g./a.)
5: Herbicidal effect, barnyard grass ([1]; 10 g./a.) | Herbicidal effect, barnyard grass ([1]; 20 g./a.) | Herbicidal effect, barnyard grass ([1]; 40 g./a.) | Herbicidal effect, large crabgrass ([2]; 10 g./a.) | Herbicidal effect, large crabgrass ([2]; 20 g./a.) | Herbicidal effect, large crabgrass ([2]; 40 g./a.) | Herbicidal effects, barnyard grass ([3]; 10 g/a) | Herbicidal effects, barnyard grass ([3]; 20 g/a) | Herbicidal effects, barnyard grass ([3]; 40 g/a) | Herbicidal effect, common purslane ([4]; 40 g./a.) | Herbicidal effects, broad-leaved weeds ([5]; 10 g/a) | Herbicidal effects, broad-leaved weeds ([5]; 20 g/a) | Herbicidal effects, broad-leaved weeds ([5]; 40 g/a) | Herbicidal effect, redroot pigweed ([6]; 40 g./a.) | Herbicidal effect, common lambsquarter ([7]; 40 g./a.)
4: Herbicidal effect, common purslane ([4]; 10 g./a.) | Herbicidal effect, common purslane ([4]; 20 g./a.) | Herbicidal effect, redroot pigweed ([6]; 10 g./a.) | Herbicidal effect, redroot pigweed ([6]; 20 g./a.) | Herbicidal effect, common lambsquarter ([7]; 10 g./a.) | Herbicidal effect, common lambsquarter ([7]; 20 g./a.)
